One may read the inhibition as the change of the read-out against control, counted positive when it falls.

SMILES strings stand for the structures.

This assay relates to NAD(P) synthesis from niacinamide in HepG2 cells. Description: Determination of NAD(P) synthesis from [14C]niacinamide in HepG2 cells. Type of assay: cell-based, human. The following applies: for inhibition at 10 µM / activity at 10 µM: Homo sapiens; for inhibition at 10 µM: read-out: Cellular NAD synthesis inhibition [%]; for activity at 10 µM / NAD(P) pmol/10^6 cells / NAD(P) pmol/mg protein: Table 3a, compound 10^-5 M; for activity at 10 µM: read-out: NAD(P) % of Control; for NAD(P) pmol/10^6 cells: 17 hrs pre-incubation, control 302.1; for NAD(P) pmol/mg protein: control 186.4. The source says: The effect of the compounds on the synthesis of NAD(P) starting from niacinamide was investigated using for example the tumor cell line HepG2 according to the technique described in the experimental part below.
The inhibition of the NAD(P) synthesis from niacinamide by these compounds was investigated in HepG2 cells as described in the section “Material and Methods”. The compounds of Table 3 a were used at a concentration of 10^−5 M. The compounds of Table 3 b were used at concentrations of at least 10^−5 M, except for Doxorubicin where the concentration was 0.3×10^−5 M. As a control, vehicle treated or untreated cells were used.
In these experiments, a pre-incubation period of 17 hrs with the compounds was used, but it turned out that the pre-incubations period could be shortened, for example to 2 hrs, or skipped completely without affecting the inhibition profile. […] Similar results were obtained with the other specific compounds.
For the detection of specific inhibitors of niacinamide mononucleotide formation the following screening assay is especially useful which comprises the following steps: incubating cultured cells selected from HepG2 cells, U-87 MG cells, MCF-7 M1 cells, Caki-1 cells, HL-60 cells, PC3 cells, U-373 MG cells, A549 cells and KG-1a cells in the presence of [^14C]niacinamide and a compound to be tested for its activity to inhibit the cellular formation of niacinamide mononucleotide; effecting lysis of the cells; isolating and separating the [^14C]-labeled compounds and measuring the amount of formed labeled niacinamide mononucleotide, NAD and NADP. More concretely, cultured cells are seeded in a defined density in culture dishes, followed by incubation in the presence of a test compound and by the addition of [^14C]niacinamide for about 0.1 to 6 hrs. The cells are then lysed with perchloric acid and the resulting extract is neutralized. Finally, the [^14C]-labeled compounds are separated by thin-layer chromatography on cellulose matrices followed by UV detection and autoradiography. Non-radioactive niacinamide derivatives are used as standards. This assay allows simple and effective screening and selection of the compounds according to the invention.
Determination of NAD(P) Synthesis from [^14C]Niacinamide
The cells were detached from 75 cm^2 flasks by removing the growth medium and adding 3 ml trypsin/EDTA solution to each flask. After about 5 minutes incubation at 37° C., when the cells were detached from the surface of the dishes, trypsinization was stopped by adding 3 ml Richter's IMEM-ZO medium containing 10% FCS. The cells were suspended by repeated pipetting. For predilution, an aliquot of 20 μl was added to 10 ml Casyton isotonic solution (No. 043-90037P, Schärfe System, Reutlingen, Germany) using a Sysmex Auto Dilutor Type AD-260 (Toa, Medical Electronics Co. Ltd., Kobe, Japan). The cell number was determined by electronic cell volume measurements and counting with a CASY 1 Cell Counter+Analyzer System, Model TTC (Schärfe System, Reutlingen, Germany) equipped with a 60 μm capillary. Following dilution in IMEM-ZO containing 10% FCS, the cells were finally seeded at a density of 4×10^6/10 ml per sample in Ø 10 cm tissue culture dishes (Greiner, Frickenhausen, Germany) and incubated at 37° C. in a humidified atmosphere of 5% CO2 in air.
After one day, when the cells were adherent to the dishes, the cultures were replenished with IMEM-ZO containing 5% FCS plus the test compound or the vehicle. […] The cells were then incubated at 37° C. for 17 hours in a humidified atmosphere of 5% CO2 in air. This preincubation period is not necessary to achieve a distinct inhibitory action of the compounds and can be shortened for example to 2 or 0 hours. After this period of time, the medium was again discarded and 4 ml HEPES-buffered IMEM-ZO containing the test compound or the vehicle and 0.5 μCi/ml [^14C]niacinamide were added to each culture for an additional 5 hours at 37° C. and 100% humidity. […]

As to `Cn1c(CCNC(=O)/C=C/c2cccnc2)ccc1CN1CCN(C(c2ccccc2)c2ccccc2)CC1` [Compound K22350, N-{2-[5-(4-benzhydryl-piperazine-1-yl-methyl)-1-methyl-1H-pyrrole-2-yl]-ethyl}-3-pyridine-3-yl-acrylamide], the inhibition at 10 µM was determined as 99%, the activity at 10 µM amounted to 0.9%, the “NAD(P) pmol/10^6 cells” value came to 2.7 pmol/10^6 cells and the “NAD(P) pmol/mg protein” value is given as 1.7 pmol/mg protein.

For the molecule `O=C(NCCCCC1CCN(S(=O)(=O)c2ccc3ccccc3c2)CC1)Nc1cccnc1` [Compound K22365, 1-{4-[1-(naphthalene-2-sulfonyl)-piperidine-4-yl)-butyl}-3-pyridine-3-yl-urea], the inhibition at 10 µM came to 92%.

Consider `O=C(NCCCCC1CCN(C(=O)N2c3ccccc3CCc3ccccc32)CC1)Nc1cccnc1` [Compound K22387, 1-{4-[1-(1,11-dihydro-dibenzene[b,f]azepine-5-carbonyl)-piperidine-4-yl]-butyl}-3-pyridine-3-yl-urea], for which the inhibition at 10 µM was 99%, the activity at 10 µM worked out at 0.9%, the “NAD(P) pmol/10^6 cells” value was 2.6 pmol/10^6 cells and the “NAD(P) pmol/mg protein” value is recorded as 1.6 pmol/mg protein.

`NC(Cc1ccc(O)c(N=Nc2ccccc2C(=O)N2CCC(CCCCNC(=O)/C=C/c3cccnc3)CC2)c1)C(=O)O` (stereo not shown) [Compound K22408, 2-amino-3-[4-hydroxy-3-(2-{4-[4-(3-pyridine-3-yl-acryloyl-amino)-butyl]-piperidine-1-carbonyl}-phenylazo)-phenyl]-propanoic acid trihydrate]: the inhibition at 10 µM came to 98%, the activity at 10 µM stood at 1.6%, the “NAD(P) pmol/10^6 cells” value is listed as 4.9 pmol/10^6 cells and the “NAD(P) pmol/mg protein” value was determined as 3.0 pmol/mg protein.

Source of the values: patent publication US20020160968A1, “Inhibitors of cellular niacinamide mononucleotide formation and their use in cancer therapy” (Klinge Pharma GmbH, priority 1999, published 2002).
